Experimental data taken from patent US20210047291A1, “PESTICIDALLY ACTIVE HETEROCYCLIC DERIVATIVES WITH SULFUR CONTAINING SUBSTITUENTS” (SYNGENTA PARTICIPATIONS AG, priority 2018, published 2021).
Each block holds one compound with its values, some of them ahead of it.

How the values were obtained:
[1] = system: Myzus persicae (Green peach aphid); experiment: Example B6: Myzus persicae systemic activity, pea seedlings; format: in vivo; details: for mortality at 1.5 ppm: Concentration 1.5 ppm, Myzus persicae (systemic, Example B6), read-out: Mortality (%); for mortality at 24 ppm: Myzus persicae, 144 h, test rate of 24 ppm, mixed ages, 6 days after placing seedlings into test solutions, read-out: mortality
Protocol: Roots of pea seedlings infested with an aphid population of mixed ages were placed directly into aqueous test solutions prepared from 10,000 DMSO stock solutions. The samples were assessed for mortality 6 days after placing seedlings into test solutions.

[2] = system: Thrips tabaci (Onion Thrips); experiment: Example B11: Thrips tabaci feeding/contact activity, sunflower leaf discs; format: in vivo; details: foliar, 144 h, application rate of 200 ppm, mixed ages, 6 days after infestation
Protocol: (§1) Sunflower leaf discs were placed on agar in 24-well microtiter plates and sprayed with aqueous test solutions prepared from 10,000 ppm DMSO stock solutions. After drying the leaf discs were infested with a thrips population of mixed ages. The samples were assessed for mortality 6 days after infestation.

[3] = system: Myzus persicae (Green peach aphid); experiment: Example B5: Myzus persicae feeding/contact activity, sunflower leaf discs; format: in vivo; details: foliar; for mortality at 200 ppm: Myzus persicae, 144 h, application rate of 200 ppm, mixed ages, 6 days after infestation, read-out: mortality
Protocol: Sunflower leaf discs were placed onto agar in a 24-well microtiter plate and sprayed with aqueous test solutions prepared from 10,000 ppm DMSO stock solutions. After drying, the leaf discs were infested with an aphid population of mixed ages. The samples were assessed for mortality 6 days after infestation.

[4] = system: Frankliniella occidentalis (Western Flower Thrips); experiment: Example B4: Frankliniella occidentalis feeding/contact activity, sunflower leaf discs; format: in vivo; details: foliar, 168 h, application rate of 200 ppm, mixed ages, 7 days after infestation
Protocol: as §1, with “10,000” for “10,000 ppm”, “Frankliniella” for “thrips”, “7” for “6”

[5] = system: Euschistus heros (Neotropical Brown Stink Bug); experiment: Example B3: Euschistus heros, soybean leaves, N2 nymphs; format: in vivo; details: for percent effect (mortality or growth inhibition) at 200 ppm: Euschistus heros, 120 h, application rate of 200 ppm, N2 nymphs, 5 days after infestation, read-out: effect in at least one of the two categories (mortality or growth inhibition)
Protocol: Soybean leaves on agar in 24-well microtiter plates were sprayed with aqueous test solutions prepared from 10,000 ppm DMSO stock solutions. After drying the leaves were infested with N2 nymphs. The samples were assessed for mortality and growth inhibition in comparison to untreated samples 5 days after infestation.

[6] = system: Plutella xylostella (Diamond Back Moth); experiment: Example B7: Plutella xylostella, artificial diet, L2 larvae; format: in vivo; details: 120 h, application rate of 200 ppm, L2 larvae, 5 days after infestation, read-out: effect in at least one of the two categories (mortality or growth inhibition)
Protocol: (§2) 24-well microtiter plates with artificial diet were treated with aqueous test solutions prepared from 10,000 ppm DMSO stock solutions by pipetting. After drying, the plates were infested with L2 larvae (10 to 15 per well). The samples were assessed for mortality and growth inhibition in comparison to untreated samples 5 days after infestation.

[7] = system: Diabrotica Balteata (Corn Root Worm); experiment: Example B2: Diabrotica balteata, maize sprouts, L2 larvae; format: in vivo; details: Diabrotica balteata, 96 h, application rate of 200 ppm; L2 larvae; 4 days after infestation; read-out: effect in at least one of the two categories (mortality or growth inhibition)
Protocol: as §2, with “Maize sprouts placed onto an agar layer in 24-well” for “24-well”, “plates” for “plates with artificial diet”, “spraying.” for “pipetting.”, “(6” for “(10”, “10” for “15”, “4” for “5”

[8] = system: Nilaparvata lugens (Brown Plant Hopper); experiment: Example B21: Nilaparvata lugens, larvicide, feeding/contact, rice plants; format: in vivo; details: Concentration 3 ppm, NILALU (contact)
Protocol: Rice plants were treated with the diluted test solutions in a spray chamber. After drying plants were infested with ˜20 N3 nymphs. 7 days after the treatment samples were assessed for mortality and growth regulation.

[9] = system: Myzus persicae (Green peach aphid); experiment: Example B19: Myzus persicae, mixed population, contact/feeding, pepper plants; format: in vivo; details: Concentration 3 ppm, MYZUPE (contact)
Protocol: Pepper plants were infested with mixed aged aphid population and were treated 1 day after infestation with diluted test solutions in a spray chamber. 5 days after treatment samples were assessed for mortality.

[10] = system: Frankliniella occidentalis (Western Flower Thrips); experiment: Example B23: Frankliniella occidentalis, mixed population, systemic into soil (drench), French bean plants; format: in vivo; details: Concentration 3 ppm, FRANOC (drench)
Protocol: French bean plants cultivated in field soil, were treated via drench application and 1 day after treatment they were infested with mixed aged thrips population. 8 days after infestation samples were assessed for mortality and phytotoxicity symptoms.

[11] = system: Myzus persicae (Green peach aphid); experiment: Example B20: Myzus persicae, mixed population, systemic into soil (drench), pea seedlings; format: in vivo; details: Concentration 0.2 ppm, MYZUPE (drench)
Protocol: Pea seedlings cultivated in field soil and infested 1 day before treatment with mixed aged aphid population were treated as drench application and checked for mortality 7 days after treatment.

[12] = system: Frankliniella occidentalis (Western Flower Thrips); experiment: Example B22: Frankliniella occidentalis, mixed population, contact/feeding, French bean plants; format: in vivo; details: Concentration 50 ppm, FRANOC (contact)
Protocol: French bean plants were treated with diluted test solutions in a spray chamber. After drying plants were infested with a mixed aged thrips population. 7 days after infestation, samples were assessed for mortality.

[13] = system: Melodoigyne incognita; experiment: Example B14: Melodoigyne incognita juvenile mobility, in vitro profiling in 96 well plate; format: in vivo; details: 200 ppm; after 24 h; second stage juveniles; read-out: control (juvenile mobility)
Procedure, shortened: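 Second-stage juveniles (100–150 per well, freshly harvested) were exposed in triplicate to test solutions prepared at 1000, 200, 100, 50, 25 and 12.5 ppm before nematode suspension was added. Plates were kept 24 h at room temperature in the dark. Juvenile mobility was measured by imaging and compared with 12 untreated replicates.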

[14] = system: Bemisia tabaci (Cotton White Fly); experiment: Example B1: Bemisia tabaci feeding/contact activity, cotton leaf discs; format: in vivo; details: foliar, 144 h, application rate of 200 ppm, adult white flies, 6 days after incubation
Protocol: Cotton leaf discs were placed on agar in 24-well microtiter plates and sprayed with aqueous test solutions prepared from 10,000 ppm DMSO stock solutions. After drying the leaf discs were infested with adult white flies. The samples were checked for mortality 6 days after incubation.

[15] = system: Plutella xylostella (Diamond Back Moth); experiment: Example B12: Plutella xylostella, artificial diet, eggs; format: in vivo; details: 192 h, application rate of 200 ppm, 8 days after infestation, read-out: effect in at least one of the two categories (mortality or growth inhibition)
Protocol: 24-well microtiter plates with artificial diet were treated with aqueous test solutions prepared from 10,000 ppm DMSO stock solutions by pipetting. After drying, Plutella eggs were pipetted through a plastic stencil onto a gel blotting paper and the plate was closed with it. The samples were assessed for mortality and growth inhibition in comparison to untreated samples 8 days after infestation. The following compounds gave an effect of at least 80% in at least one of the two categories (mortality or growth inhibition) at an application rate of 200 ppm: P46.

[16] = system: Tetranychus urticae (Two-Spotted Spider Mite); experiment: Example B10: Tetranychus urticae feeding/contact activity, bean leaf discs; format: in vivo; details: foliar, 192 h, application rate of 200 ppm, mixed population (mobile stages), 8 days after infestation
Protocol: as §1, with “Bean” for “Sunflower”, “discs” for “discs were placed”, “were” for “and”, “mite” for “thrips”, “on mixed population (mobile stages) 8” for “6”

[17] = system: Spodoptera littoralis (Egyptian Cotton Leaf Worm); experiment: Example B9: Spodoptera littoralis, cotton leaf discs (mortality, anti-feeding, growth inhibition); format: in vivo; details: foliar, 72 h, application rate of 200 ppm, L1 larvae, 3 days after infestation, read-out: control (mortality, anti-feeding effect or growth inhibition)
Protocol: Cotton leaf discs were placed onto agar in 24-well microtiter plates and sprayed with aqueous test solutions prepared from 10,000 ppm DMSO stock solutions. After drying the leaf discs were infested with five L1 larvae. The samples were assessed for mortality, anti-feeding effect, and growth inhibition in comparison to untreated samples 3 days after infestation. Control of Spodoptera littoralis by a test sample is given when at least one of the categories mortality, anti-feedant effect, and growth inhibition is higher than the untreated sample.

- melting point: 260 °C
SMILES: CCS(=O)(=O)c1cc(NC(=O)C(F)(F)F)ccc1-c1nc2cc(C(F)(F)F)ncc2n1C [P3, N-[3-ethylsulfonyl-4-[3-methyl-6-(trifluoromethyl)imidazo[4,5-c]pyridin-2-yl]phenyl]-2,2,2-trifluoro-acetamide]

SMILES: CCS(=O)(=O)c1cc(NC(=O)C2CC2)cnc1-c1nc2cc(C(F)(F)F)ncc2n1C [P2, N-[5-ethylsulfonyl-6-[3-methyl-6-(trifluoromethyl)imidazo[4,5-c]pyridin-2-yl]-3-pyridyl]cyclopropanecarboxamide]
- mortality at 1.5 ppm [1]: 80%
- mortality at 24 ppm [1]: ≥ 80%
- mortality at 200 ppm [2]: ≥ 80%
- mortality at 200 ppm [3]: ≥ 80%
- mortality at 200 ppm [4]: ≥ 80%
- percent effect (mortality or growth inhibition) at 200 ppm [5]: ≥ 80%
- percent effect (mortality or growth inhibition) at 200 ppm [6]: ≥ 80%
- percent effect (mortality or growth inhibition) at 200 ppm [7]: ≥ 80%

SMILES: CCSc1cc(NC(=O)C2CC2)cnc1-c1nc2cc(C(F)(F)F)ncc2n1C [P1, N-[5-ethylsulfanyl-6-[3-methyl-6-(trifluoromethyl)imidazo[4,5-c]pyridin-2-yl]-3-pyridyl]cyclopropanecarboxamide]
- mortality at 200 ppm [2]: ≥ 80%
- mortality at 200 ppm [4]: ≥ 80%
- percent effect (mortality or growth inhibition) at 200 ppm [7]: ≥ 80%

SMILES: CCS(=O)(=O)c1ccc(N(C)C(C)=O)nc1-c1nc2cc(C(F)(F)F)ncc2n1C [reference compound]
- mortality at 3 ppm [8]: 30%
- mortality at 3 ppm [9]: 20%
- mortality at 3 ppm [10]: 35%
- mortality at 0.2 ppm [11]: 50%
- mortality at 50 ppm [12]: 0%

- melting point: 195 to 196 °C
SMILES: CCSc1cc(NC(=O)C(C)(C)O)cnc1-c1nc2cc(C(F)(F)F)ncc2n1C [P7, N-[5-ethylsulfanyl-6-[3-methyl-6-(trifluoromethyl)imidazo[4,5-c]pyridin-2-yl]-3-pyridyl]-2-hydroxy-2-methyl-propanamide]

- melting point: 211 to 213 °C
SMILES: CCS(=O)(=O)c1cc(N2CCSCC2=O)cnc1-c1nc2cc(C(F)(F)F)ncc2n1C [P19, 4-[5-ethyslulfonyl-6-[3-methyl-6-(trifluoromethyl)imidazo[4,5-c]pyridin-2-yl]-3-pyridyl]thiomorpholin-3-one]
- pest or weed control at 200 ppm [13]: ≥ 80%

SMILES: CCS(=O)(=O)c1cc(N(C(C)=O)C(C)C)cnc1-c1nc2cc(C(F)(F)F)ncc2n1C [P46, N-[5-ethylsulfonyl-6-[3-methyl-6-(trifluoromethyl)imidazo[4,5-c]pyridin-2-yl]-3-pyridyl]-N-isopropyl-acetamide]
- mortality at 200 ppm [14]: ≥ 80%
- mortality at 24 ppm [1]: ≥ 80%
- mortality at 200 ppm [3]: ≥ 80%
- percent effect (mortality or growth inhibition) at 200 ppm [15]: ≥ 80%
- mortality at 200 ppm [4]: ≥ 80%
- percent effect (mortality or growth inhibition) at 200 ppm [5]: ≥ 80%
- percent effect (mortality or growth inhibition) at 200 ppm [7]: ≥ 80%
- mortality at 200 ppm [16]: ≥ 80%

SMILES: CCS(=O)(=O)c1cc(N2CCSC2=O)cnc1-c1nc2cc(C(F)(F)F)ncc2n1C [P45, 3-[5-ethylsulfonyl-6-[3-methyl-6-(trifluoromethyl)imidazo[4,5-c]pyridin-2-yl]-3-pyridyl]thiazolidin-2-one]
- mortality at 200 ppm [14]: ≥ 80%
- mortality at 1.5 ppm [1]: 50%
- mortality at 24 ppm [1]: ≥ 80%
- pest or weed control at 200 ppm [13]: ≥ 80%
- mortality at 200 ppm [3]: ≥ 80%
- mortality at 12.5 ppm ([3]; Concentration 12.5 ppm, Myzus persicae (feeding/contact, Example B5), read-out: Mortality (%)): 80%
- percent control (mortality, anti-feedant effect or growth inhibition) at 200 ppm [17]: ≥ 80%
- mortality at 50 ppm ([5]; Concentration 50 ppm, Euschistus heros (Example B3), read-out: Mortality (%)): 100%
- percent effect (mortality or growth inhibition) at 200 ppm [5]: ≥ 80%
- percent effect (mortality or growth inhibition) at 200 ppm [6]: ≥ 80%
- percent effect (mortality or growth inhibition) at 200 ppm [7]: ≥ 80%
- mortality at 200 ppm [16]: ≥ 80%

SMILES: CCS(=O)(=O)c1cc(N(C)C(C)=O)cnc1-c1nc2cc(C(F)(F)F)ncc2n1C [P6, N-[5-ethylsulfonyl-6-[3-methyl-6-(trifluoromethyl)imidazo[4,5-c]pyridin-2-yl]-3-pyridyl]-N-methyl-acetamide]
- mortality at 200 ppm [14]: ≥ 80%
- mortality at 24 ppm [1]: ≥ 80%
- mortality at 3 ppm [8]: 80%
- pest or weed control at 200 ppm [13]: ≥ 80%
- mortality at 3 ppm [9]: 70%
- mortality at 3 ppm [10]: 92.5%
- mortality at 0.2 ppm [11]: 92.5%
- mortality at 50 ppm [12]: 98%
- mortality at 200 ppm [3]: ≥ 80%
- mortality at 200 ppm [4]: ≥ 80%
- percent control (mortality, anti-feedant effect or growth inhibition) at 200 ppm [17]: ≥ 80%
- percent effect (mortality or growth inhibition) at 200 ppm [5]: ≥ 80%
- percent effect (mortality or growth inhibition) at 200 ppm [6]: ≥ 80%
- percent effect (mortality or growth inhibition) at 200 ppm [7]: ≥ 80%
- mortality at 200 ppm [16]: ≥ 80%
